Reference: PubChem BioAssay AID330 (DTP/NCI, 2004)
Values joined by “and” are separate entries in the source; they are usually repeats but may differ in a detail not shown here. Equal entries are not always repeated. Toxic doses and inconclusive results are not listed.

Test system: P388 leukemia ip, CD2F1 mice, survival T/C
Assay: NCI In Vivo Anticancer Drug Screen. Data for tumor model P388 Leukemia (intraperitoneal) in CD2F1 (CDF1) mice
Conditions: endpoint: median survival time, higher = longer survival
Method in brief: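 Mice carrying the transplanted tumor received test compound or vehicle. Survival was recorded in each group, and the value is the treated-group measurement divided by that of the vehicle-treated control group.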

[1] = dose: 50.0 mg/kg/injection, schedule: Q01DX009 (ip), vehicle: saline
[2] = dose: 100.0 mg/kg/injection, schedule: Q01DX009 (ip), vehicle: saline
[3] = dose: 200.0 mg/kg/injection, schedule: Q01DX009 (ip), vehicle: saline
[4] = dose: 60.0 mg/kg/injection, schedule: Q01DX005 (ip), vehicle: saline with Tween-80
[5] = dose: 120.0 mg/kg/injection, schedule: Q01DX005 (ip), vehicle: saline with Tween-80
[6] = dose: 240.0 mg/kg/injection, schedule: Q01DX005 (ip), vehicle: saline with Tween-80
[7] = dose: 50.0 mg/kg/injection, schedule: Q01DX009 (ip), vehicle: Klucel (hydroxypropylcellulose) (HPC)
[8] = dose: 100.0 mg/kg/injection, schedule: Q01DX009 (ip), vehicle: Klucel (hydroxypropylcellulose) (HPC)
[9] = dose: 200.0 mg/kg/injection, schedule: Q01DX009 (ip), vehicle: Klucel (hydroxypropylcellulose) (HPC)
[10] = dose: 50.0 mg/kg/injection, schedule: Q01DX005 (ip), vehicle: saline with Tween-80
[11] = dose: 100.0 mg/kg/injection, schedule: Q01DX005 (ip), vehicle: saline with Tween-80
[12] = dose: 200.0 mg/kg/injection, schedule: Q01DX005 (ip), vehicle: saline with Tween-80
[13] = dose: 50.0 mg/kg/injection, schedule: Q01DX009 (ip), vehicle: saline with Tween-80
[14] = dose: 100.0 mg/kg/injection, schedule: Q01DX009 (ip), vehicle: saline with Tween-80
[15] = dose: 200.0 mg/kg/injection, schedule: Q01DX009 (ip), vehicle: saline with Tween-80
[16] = dose: 50.0 mg/kg/injection, schedule: Q01DX005 (ip), vehicle: Klucel (hydroxypropylcellulose) (HPC)
[17] = dose: 100.0 mg/kg/injection, schedule: Q01DX005 (ip), vehicle: Klucel (hydroxypropylcellulose) (HPC)

In the case of CNC(=O)N(Cl)c1ccc(Cl)cc1, the T/C [1] is reported as 98 % of control, the T/C [2] is reported as 96 % of control and the T/C [3] is reported as 97 % of control.
In the case of COC(=O)C(=O)C(C(=O)c1cccc2ccccc12)c1nc2n(c1O)C(=N)N=N2 (stereo unspecified), the T/C [4] is reported as 109 % of control, the T/C [5] is reported as 104 % of control and the T/C [6] is reported as 100 % of control.
COC(=O)C(O)(C(=O)OC)C1=C(N)C(=O)c2ccccc2C1=O was tested, and the T/C (dose: 50.0 mg/kg/injection, schedule: Q01DX005 (ip), vehicle: saline) was 111 % of control and the T/C (dose: 100.0 mg/kg/injection, schedule: Q01DX005 (ip), vehicle: saline) was 123 % of control.
With O=P(c1cccs1)(c1cccs1)c1cccs1 the T/C [7] was 96 % of control, the T/C [8] was 92 % of control and the T/C [9] was 101 % of control.
For COc1ccc(Oc2cc3c[n+](C)ccc3cc2OC)cc1, the T/C (dose: 12.5 mg/kg/injection, schedule: Q01DX009 (ip), vehicle: saline) was 111 % of control and the T/C (dose: 25.0 mg/kg/injection, schedule: Q01DX009 (ip), vehicle: saline) was 117 % of control.
With CSc1ncc(C#N)c2nc(-c3ccccc3)nn12 the T/C [10] was 97 % of control, the T/C [11] was 94 % of control and the T/C [12] was 88 % of control.
In the case of O=C(CSc1ncnc2nc[nH]c12)c1ccccc1, the T/C [13] is reported as 90 % of control, the T/C [14] is reported as 100 % of control and the T/C [15] is reported as 105 % of control.
With CC(=O)NC(Cc1ccc(F)cc1)C(=O)O (stereo unspecified) the T/C [13] was 101 % of control and 109 % of control, the T/C [14] was 102 % of control and 109 % of control and the T/C [15] was 107 % of control and 95 % of control. The T/C (dose: 400.0 mg/kg/injection, schedule: Q01DX009 (ip), vehicle: saline with Tween-80) was 107 % of control and 113 % of control and the T/C (dose: 600.0 mg/kg/injection, schedule: Q01DX009 (ip), vehicle: saline with Tween-80) was 112 % of control and 124 % of control.
FC(F)(F)c1cccc(OCC2CO2)c1 (stereo unspecified) was tested, and the T/C [7] was 102 % of control, the T/C [8] was 99 % of control and the T/C [9] was 97 % of control.
In the case of COc1c2ccc(OCC=C(C)C)cc2nc2occc12, the T/C (dose: 7.0 mg/kg/injection, schedule: Q01DX005 (ip), vehicle: Klucel + Tween-80) is reported as 106 % of control, the T/C (dose: 14.0 mg/kg/injection, schedule: Q01DX005 (ip), vehicle: Klucel + Tween-80) is reported as 103 % of control and the T/C (dose: 28.0 mg/kg/injection, schedule: Q01DX005 (ip), vehicle: Klucel + Tween-80) is reported as 99 % of control. The T/C (dose: 56.0 mg/kg/injection, schedule: Q01DX005 (ip), vehicle: Klucel + Tween-80) was 103 % of control.
With CN(C)CCn1ncc(Sc2cc([N+](=O)[O-])ccc2N)c(Cl)c1=O the T/C [4] was 103 % of control, the T/C [5] was 96 % of control and the T/C [6] was 97 % of control.
In the case of O=C(O)Cc1cccc2c(=O)cc(-c3ccccc3)oc12, the T/C (dose: 24.12 mg/kg/injection, schedule: Q01DX005 (ip), vehicle: saline) is reported as 104 % of control, the T/C (dose: 30.0 mg/kg/injection, schedule: Q01DX009 (ip), vehicle: saline) is reported as 101 % of control and 103 % of control and 106 % of control and the T/C (dose: 40.2 mg/kg/injection, schedule: Q01DX005 (ip), vehicle: saline) is reported as 111 % of control. The T/C (dose: 44.0 mg/kg/injection, schedule: Q01DX009 (ip), vehicle: saline) was 109 % of control and 117 % of control and 122 % of control, the T/C (dose: 45.0 mg/kg/injection, schedule: Q01DX009 (ip), vehicle: sodium bicarbonate) was 116 % of control and the T/C [1] was 106 % of control. The T/C (dose: 60.0 mg/kg/injection, schedule: Q04DX002 (ip), vehicle: sodium bicarbonate) was 103 % of control, the T/C (dose: 67.0 mg/kg/injection, schedule: Q01DX001 (ip), vehicle: sodium bicarbonate) was 112 % of control and the T/C (dose: 90.0 mg/kg/injection, schedule: Q04DX002 (ip), vehicle: sodium bicarbonate) was 118 % of control. The T/C (dose: 100.0 mg/kg/injection, schedule: Q01DX001 (ip), vehicle: sodium bicarbonate) was 107 % of control, the T/C (dose: 111.67 mg/kg/injection, schedule: Q01DX005 (ip), vehicle: saline) was 153 % of control and the T/C (dose: 150.0 mg/kg/injection, schedule: Q01DX001 (ip), vehicle: sodium bicarbonate) was 106 % of control. The T/C (dose: 186.12 mg/kg/injection, schedule: Q01DX005 (ip), vehicle: saline) was 172 % of control, the T/C (dose: 200.0 mg/kg/injection, schedule: Q01DX001 (ip), vehicle: sodium bicarbonate) was 112 % of control and the T/C (dose: 223.0 mg/kg/injection, schedule: Q01DX001 (ip), vehicle: sodium bicarbonate) was 103 % of control. For the same molecule, the T/C (dose: 300.0 mg/kg/injection, schedule: Q01DX001 (ip), vehicle: sodium bicarbonate) was 116 % of control, the T/C (dose: 333.0 mg/kg/injection, schedule: Q01DX001 (ip), vehicle: sodium bicarbonate) was 112 % of control and the T/C (dose: 400.0 mg/kg/injection, schedule: Q01DX001 (ip), vehicle: sodium bicarbonate) was 114 % of control. For the same molecule, the T/C (dose: 500.0 mg/kg/injection, schedule: Q01DX001 (ip), vehicle: sodium bicarbonate) was 116 % of control.
For CCOCC(=O)OCC, the T/C [2] was 105 % of control, the T/C [3] was 101 % of control and the T/C (dose: 400.0 mg/kg/injection, schedule: Q01DX009 (ip), vehicle: saline) was 102 % of control.
For ClC1=C(Cl)C2(Cl)C=CC1(Cl)C2, the T/C [10] was 106 % of control, the T/C [11] was 106 % of control and the T/C [12] was 108 % of control.
With COC(=O)C1=CO[C@@H](OC2OC(CO)C(O)C(O)C2O)[C@@H]2[C@@H](C)[C@@H](O)C[C@H]12 (stereo partly specified) the T/C (dose: 1.13 mg/kg/injection, schedule: Q01DX005 (ip), vehicle: water) was 100 % of control, the T/C (dose: 2.25 mg/kg/injection, schedule: Q01DX005 (ip), vehicle: water) was 99 % of control and the T/C (dose: 4.5 mg/kg/injection, schedule: Q01DX005 (ip), vehicle: water) was 93 % of control. For the same molecule, the T/C (dose: 9.0 mg/kg/injection, schedule: Q01DX005 (ip), vehicle: water) was 95 % of control.
With Nc1nc(N)nc(-c2ccccc2)n1 the T/C (dose: 50.0 mg/kg/injection, schedule: Q01DX009 (ip), vehicle: suspension in saline) was 106 % of control, the T/C (dose: 100.0 mg/kg/injection, schedule: Q01DX009 (ip), vehicle: suspension in saline) was 99 % of control and the T/C (dose: 200.0 mg/kg/injection, schedule: Q01DX009 (ip), vehicle: suspension in saline) was 106 % of control.
COc1cc(C(=O)Oc2c(OC)cc(C(=O)c3cc4c(cc3C)OCO4)cc2OC)cc(OC)c1OC was tested, and the T/C [16] was 88 % of control and the T/C [17] was 88 % of control.
CCCCCCCOCC(=O)OC was tested, and the T/C [13] was 109 % of control, the T/C [14] was 108 % of control and the T/C [15] was 101 % of control.
COc1cc(O)ccc1/C=C/C(=O)c1ccc(OC2OC(CO)C(O)C(O)C2O)cc1 (stereo unspecified) was tested, and the T/C (dose: 100.0 mg/kg/injection, schedule: Q04DX002 (ip), vehicle: saline with Tween-80) was 98 % of control, the T/C (dose: 200.0 mg/kg/injection, schedule: Q04DX002 (ip), vehicle: saline with Tween-80) was 105 % of control and the T/C (dose: 400.0 mg/kg/injection, schedule: Q04DX002 (ip), vehicle: saline with Tween-80) was 108 % of control.
In the case of COc1ccc(OC)c(/C=C/c2cnnc3ccccc23)c1, the T/C (dose: 18.75 mg/kg/injection, schedule: Q04DX003 (ip), vehicle: Klucel (hydroxypropylcellulose) (HPC)) is reported as 100 % of control, the T/C (dose: 37.5 mg/kg/injection, schedule: Q04DX003 (ip), vehicle: Klucel (hydroxypropylcellulose) (HPC)) is reported as 111 % of control and the T/C (dose: 75.0 mg/kg/injection, schedule: Q04DX003 (ip), vehicle: Klucel (hydroxypropylcellulose) (HPC)) is reported as 100 % of control. The T/C (dose: 150.0 mg/kg/injection, schedule: Q04DX003 (ip), vehicle: Klucel (hydroxypropylcellulose) (HPC)) was 106 % of control and the T/C (dose: 300.0 mg/kg/injection, schedule: Q04DX003 (ip), vehicle: Klucel (hydroxypropylcellulose) (HPC)) was 103 % of control.
In the case of C/C(=C\C(=O)c1cccc(F)c1)N1CCN(c2ccc(F)cc2)CC1, the T/C [16] is reported as 100 % of control, the T/C [17] is reported as 96 % of control and the T/C (dose: 200.0 mg/kg/injection, schedule: Q01DX005 (ip), vehicle: Klucel (hydroxypropylcellulose) (HPC)) is reported as 100 % of control.
With CSc1c(C)n2c3c(cccc13)CCC2 the T/C [4] was 108 % of control, the T/C [5] was 96 % of control and the T/C [6] was 100 % of control.
In the case of CC(C)CC(=O)CC(=O)C(C)(C)C.CC(C)CC(=O)CC(=O)C(C)(C)C.[Cu], the T/C (dose: 25.0 mg/kg/injection, schedule: Q04DX003 (ip), vehicle: Klucel (hydroxypropylcellulose) (HPC)) is reported as 100 % of control, the T/C (dose: 50.0 mg/kg/injection, schedule: Q04DX003 (ip), vehicle: Klucel (hydroxypropylcellulose) (HPC)) is reported as 101 % of control and the T/C (dose: 100.0 mg/kg/injection, schedule: Q04DX003 (ip), vehicle: Klucel (hydroxypropylcellulose) (HPC)) is reported as 98 % of control and 106 % of control.
For CC(O)CN(Cc1c(O)ccc2ccccc12)CC(C)O (stereo unspecified), the T/C [10] was 108 % of control, the T/C [11] was 110 % of control and the T/C [12] was 99 % of control.
